Measurements: patent US20040229205A1, “Compositions for the storage of platelets” (priority 2003, published 2004)

What was measured:
[1] = system: platelets (ATP secretion); test: ATP secretion of stored platelets in response to 10 nM thrombin (luciferin/luciferase); type: cell-based
Excerpt: Yet another measure of platelet function is the secretion of ATP. Platelets that are able to function well are able to secrete ATP while cells that have already been activated or have lost funciton in other ways cannot secrete ATP.
The platelet dense granules shown in FIG. 1 contain ATP which is released in response to platelet agonists such as thrombin, collagen or adenosine diphosphate (ADP). The release reaction of ATP from platelets serves as another method to monitor platelet function. There are many methods to analyze ATP. A convenient method is the well known luciferin/luciferase reaction (Sigma Chemical, St. Louis). This assay is derived from the light producing system of the firefly. The substrate luciferin, in the presence of ATP, is cleaved by the enzyme luciferase, accompanied by the emission of light. The emitted light is measured by a photomultiplier tube
Platelet suspensions containing about 350 units in 40 μl were mixed with 10 μl luciferin/luciferase reagent. An agonist is injected. As the platelet dense granules release ATP, the bioluminescent reaction occurs, which is measured by the photomultiplier tube. […] The rate of reaction is recorded and as platelet function decays, the rate decays. Total ATP was measured by lysing the cells with Triton and determining ATP content. The results as presented in Table III are expressed as intact rate of ATP secretion.

[2] = system: platelets (P-selectin expression); test: P-selectin expression of stored platelets by flow cytometry, basal and after 10 nM thrombin challenge; type: cell-based; conditions: for Difference (% capable of being activated) / % Positive / P-Selectin Expression: five day stored platelets; for retained P-selectin expression activity: thrombin challenge
Excerpt: Internal protein expression may be measured by conjugation of a molecule with a fluorescent dye, followed by sorting in a fluorescent cell sorter. In general, it is preferable to use two monoclonal antibodies, one that binds a cell surface molecule expressed and a second that binds a cell surface molecule that is expressed only after activation. Each monoclonal antibody is conjugated to a different colored dye, that can be distinguished by spectrofluorometry. In the preferred embodiment, the normally expressed cell surface molecule is GPIIbIIIa; the cell surface molecule expressed after activation is P-selectin. It is well know in the art to make monoclonal antibodies to proteins. U.S. Pat. No. 5,470,738, issued in 1995 to Freilich et al, is one example of a method of making monoclonal antibodies to GPIIIa. Another anti-platelet monoclonal antibody is that to GP IV, as disclosed by U.S. Pat. No. 5,231,025, issued in 1993 to Gralnisch. However, it is most convenient to purchase antibodies commercially from such companies as Becton-Dickinson (Philadelphia).
A basal measurement of spontaneous activation is obtained and the cells are then challenged with an agonist. The difference between cells challenged to activate minus the basal measurement is a measure of cell function. In the preferred embodiment, the agonist is 10 nM thrombin.
P-selectin is an internal protein that is exposed on the surface of the platelet after activation. Once activated, platelets cannot be activated again, that is, they are nonfunctional. Platelets which have aggregated are likewise nonfunctional. Measurement of P-selectin before and after activation with thrombin provides a measure of the ability of the platelets to be activated.
P-selectin expression in response to a challenge of 10 nM thrombin is a highly accurate and quantitative method to assess platelet function using flow cytometry techniques. A monoclonal antibody to the platelet GPIIbIIIa receptor (Becton-Dickinson) is conjugated with green fluorescence, marking all platelets with a green detection. […] About 10,000 to 25,000 platelets are counted and measured for P-selectin expression and the % positive cells are defined as activated platelets that express P-selectin. Platelets that are activated are not capable of being activated a second time; that is, they are essentially nonfunctional.
It was proposed years ago by Dawson (Transfusion 21:215-218. (1981)) that ribose at the concentration of 15 mM is beneficial to stored whole blood. It was assumed that ribose functioned by raising the energy levels of the cells, as discussed at length in U.S. Pat. No. 6,159,942. […] However, it should be noted that the platelet storage milieu is an austere environment, lacking the homeostatic and buffering mechanisms of the kidneys, lungs and livers of an intact organism. Various concentrations of D-Ribose were tested to determine the optimum level for platelet storage. […] Platelet concentrate bags were obtained from a local transfusion center within two hours of collection from the donor. The platelets were either supplemented with the D-Ribose cocktail directly into the bag or the platelets were divided into a series of 10 tubes into each of which two ml of platelets were added. Platelet function was assessed by ATP secretion, platelet aggregation, P-selectin expression, platelet count and pH. Platelet function was measured every 24 hours. The bags and tubes were placed on a rotating wheel at room temperature for the duration of the experiment.
For the concentration test, platelets were stored for five days in standard platelet storage solution at room temperature and gentle agitation with or without various levels of ribose. At five days the P-selectin expression test was performed.

[3] = system: bacteria; test: Bacterial contamination of platelet storage solution by colony counts in Petri dishes; conditions: D-Ribose added to the storage cocktail
Description: Bacterial contamination was measured by colony counts in standard Petri dishes that had been inculated with the test solution. It is assumed that the millimolar glucose concentration in most platelet storage solutions contributes to the growth of bacteria. As noted above, Murphy (Table II) discloses a glucose-free solution for the storage of platelets. Elimination of reduction of glucose levels from millimolar to micromolar concentrations has a profound effect in reducing bacterial contamination, however, platelet function at five days, as measured by ATP secretion and P-selectin expression, was poor.

[4] = 30 grams of ribose each day, subjects; cited from earlier work

O=C[C@H](O)[C@H](O)[C@H](O)CO [D-Ribose]
preservative effect on ATP secretion ([1]; 1.5 nM D-Ribose): no preservative effect
rise of total ATP content of treated cells ([1]; 150 nM D-Ribose): more than 10%
Rate of ATP secretion ([1]; 150 nM D-Ribose, day 1, 10 nM thrombin): 1.9
Total ATP ([1]; 150 nM D-Ribose, day 1, cells lysed with Triton): 3.0
Rate of ATP secretion ([1]; 150 nM D-Ribose, day 3, 10 nM thrombin): 1.9
Total ATP ([1]; 150 nM D-Ribose, day 3, cells lysed with Triton): 3.2
Rate of ATP secretion ([1]; 150 nM D-Ribose, day 5, 10 nM thrombin): 1.7
Total ATP ([1]; 150 nM D-Ribose, day 5, cells lysed with Triton): 3.4
Rate of ATP secretion ([1]; 150 nM D-Ribose, day 7, 10 nM thrombin): 1.6
Total ATP ([1]; 150 nM D-Ribose, day 7, cells lysed with Triton): 3.4
effect on ATP secretion ([1]; 15 mM D-Ribose): no effect
toxicity to platelets ([1]; 15 mM D-Ribose): toxic to platelets
ATP secretion activity, % of baseline ([1]; optimal amounts of D-Ribose (150 nM), day 7): > 80%
mean ATP secretion activity, % of baseline ([1]; optimal amounts of D-Ribose (150 nM), five days): 90%
Difference (% capable of being activated) ([2]; 150 pM D-Ribose): 10.9%
% Positive ([2]; 150 pM D-Ribose, + thrombin): 42.6%
P-Selectin Expression ([2]; 150 pM D-Ribose, + thrombin): 15475
% Positive ([2]; 150 pM D-Ribose, basal): 31.7%
P-Selectin Expression ([2]; 150 pM D-Ribose, basal): 11260
preserving function (P-selectin expression test) ([2]; 150 pM D-Ribose, five days storage): ineffective
retained activity ([2]; 150 nM D-Ribose, 8 days of storage): greater than 75%
retained activity ([2]; 150 nM D-Ribose, 10 days of storage): greater than 50%
Difference (% capable of being activated) ([2]; 150 nM D-Ribose): 60.6%
% Positive ([2]; 150 nM D-Ribose, + thrombin): 65.7%
P-Selectin Expression ([2]; 150 nM D-Ribose, + thrombin): 41480
% Positive ([2]; 150 nM D-Ribose, basal): 5.1%
P-Selectin Expression ([2]; 150 nM D-Ribose, basal): 2465
retained P-selectin expression activity ([2]; 150 nM D-Ribose, five days storage): about 60%
retention of activation activity on activation with thrombin ([2]; 153 nM D-Ribose, three days storage): 78.8%
positive (activated) cells ([2]; 153 nM D-Ribose, three days storage, basal): 5%
Difference (% capable of being activated) ([2]; 15 μM D-Ribose): 58.3%
% Positive ([2]; 15 μM D-Ribose, + thrombin): 64.4%
P-Selectin Expression ([2]; 15 μM D-Ribose, + thrombin): 34960
% Positive ([2]; 15 μM D-Ribose, basal): 6.1%
P-Selectin Expression ([2]; 15 μM D-Ribose, basal): 3275
Difference (% capable of being activated) ([2]; 1.5 mM D-Ribose): 34.4%
% Positive ([2]; 1.5 mM D-Ribose, + thrombin): 60.0%
P-Selectin Expression ([2]; 1.5 mM D-Ribose, + thrombin): 32400
% Positive ([2]; 1.5 mM D-Ribose, basal): 40.4%
P-Selectin Expression ([2]; 1.5 mM D-Ribose, basal): 21605
retained P-selectin expression activity ([2]; 1.5 mM D-Ribose, five days storage): about 60%
incidence of bacterial contamination [3]: lower incidence of bacterial contamination
tolerance of ingestion [4]: no ill effects
